How the values were obtained:
Assay type in all cases: cell-based, human
[1] = tested on: glutamate cysteine ligase (GCL); assay: GCL activity in cultured skin fibroblasts after t-BHQ treatment; conditions: for increase of GCL activity after t-BHQ treatment (factor): t-BHQ vs baseline
Description: (§1) Human fibroblast cultures were established from skin biopsies as described in Tosic et al.[8] Cells were grown with DMEM medium (0.5 l medium completed with 10 ml Ultroser-G serum, 5 ml Penicillin/Streptomycin, 5 ml sodium pyruvate (100 mM)) at 37° C. in a humidified atmosphere containing 5% CO2/95% air. Human fibroblasts near confluence after five passages were treated for 18 h with 50 μM t-BHQ in 0.05% DMSO (t-BHQ condition) or 0.05% DMSO alone (baseline condition). Cells were washed once with phosphate-buffer saline (PBS), trypsinized and pelleted. The pellet was washed once, taken up into PBS and frozen. GSH content and GCL activity was determined in protein extracts from fibroblasts cultures, with a fluorescence-based microtiter plate assay according to White and colleagues [White et al, 2003]. GCL activity was determined as the difference between GSH synthesis in unblocked and GSH synthesis in BSO treated wells per min and per mg protein. Protein concentration has been determined by BCA protein assay. In addition, GSH contents under untreated conditions were also routinely measured in all participants that had spent skin fibroblasts (33 controls and 39 patients) by a colorimetric GSH assay kit (Calbiochem, San Diego, USA).

GCLM = GCLM protein expression by Western Blot in skin fibroblasts after t-BHQ treatment; conditions: for increase of GCLM protein expression induced by t-BHQ treatment: t-BHQ vs baseline; for GCLM protein expression: t-BHQ treated (50 μM, 18 h)
Description: (§2) Human fibroblast cultures were established from skin biopsies as described in Tosic et al.[8] Cells were grown with DMEM medium (0.5 l medium completed with 10 ml Ultroser-G serum, 5 ml Penicillin/Streptomycin, 5 ml sodium pyruvate (100 mM)) at 37° C. in a humidified atmosphere containing 5% CO2/95% air. Human fibroblasts near confluence after five passages were treated for 18 h with 50 μM t-BHQ in 0.05% DMSO (t-BHQ condition) or 0.05% DMSO alone (baseline condition). Cell lysis was performed on ice. Cells were washed with PBS and scraped with lysis buffer (2.37 ml scraping buffer (Tris-HCl 50 mM, pH 7.2; NaCl 150 mM; NaF 10 mM; EDTA 2 mM; EGTA 2 mM; Triton X100 1%); 100 μl Complete (1 tablet/2 ml H2O); 25 μl PMSF 100 mM; 2.5 μl DTT 1 mM). Lysates were homogenized 10 times with a 25-gauge needle, and cellular debris were cleared by centrifugation (20,000 g, 14 min, 4° C.). Protein concentration was determined by BCA protein assay. Equal amounts of protein (50 μg) were dissolved in 5× Laemmli sample buffer, separated by 12% SDS-PAGE, and electro-transferred to a PVDF membrane. Membranes were blocked (BSA 1%/milk powder 3%) overnight at 4° C. Following incubation with primary and secondary antibodies, protein was visualized by using the ECL detection system and protein abundance was quantified by densitometry analysis (Multi Genius, Bio Imaging System, Syngene). A fibroblast protein pool from 5 different individuals was used as an external control in all experiments. The results were normalized to a -Tubulin, and reported relative to the specific protein levels measured in the protein pool.

skin fibroblasts = assay: GSH content in cultured skin fibroblasts after t-BHQ treatment; conditions: for GSH content: t-BHQ treated (50 μM, 18 h)
Description: as §1

GCLC = GCLC protein expression by Western Blot in skin fibroblasts after t-BHQ treatment; conditions: for increase of GCLC protein expression by t-BHQ treatment (factor): t-BHQ vs baseline
Description: as §2

[2] = t-BHQ treatment, subjects with GCLC GAG TNR genotypes 7/7 & 7/9
[3] = t-BHQ treatment, subjects with genotypes 7/8, 8/8, 8/9 & 9/9
[4] = fibroblasts of control subjects
[5] = fibroblasts of schizophrenia patients

SMILES: CC(C)(C)c1cc(O)ccc1O [t-BHQ, tert-butylhydroquinone]
- increase of GCL activity after t-BHQ treatment (factor) ([1]; controls): 3.45
- increase of GCL activity after t-BHQ treatment (factor) ([1]; patients): 2.95
- GCL activity ([1]; t-BHQ treated (50 μM, 18 h), fibroblasts of control subjects, average and standard deviation): 0.847 ± 0.26 nmol GSH/min/mg protein
- GCL activity ([1]; t-BHQ treated (50 μM, 18 h), fibroblasts of schizophrenia patients, average and standard deviation): 0.627 ± 0.16 nmol GSH/min/mg protein
- GCL activity [1, 2]: 0.784±0.246
- GCL activity [1, 3]: 0.584±0.141
- increase of GCLM protein expression induced by t-BHQ treatment (GCLM; control subjects): 73%
- increase of GCLM protein expression induced by t-BHQ treatment (GCLM; patients): 74%
- GCLM protein expression (GCLM; [4]): 108.0 ± 24.0 α-Tubulin corrected arbitrary units
- GCLM protein expression (GCLM; [5]): 107.6 ± 24.1 α-Tubulin corrected arbitrary units
- GSH content (skin fibroblasts; [4]): 144.9 ± 21.5 nmol GSH/mg protein
- GSH content (skin fibroblasts; [5]): 136.3 ± 19.1 nmol GSH/mg protein
- increase of GSH content after t-BHQ treatment (factor) (skin fibroblasts; very similar in patients and controls, t-BHQ vs baseline): 2.53
- increase of GCLC protein expression by t-BHQ treatment (factor) (GCLC; controls): 1.44
- increase of GCLC protein expression by t-BHQ treatment (factor) (GCLC; patients): 1.32
- GCLC protein expression (GCLC; t-BHQ treated (50 μM, 18 h), fibroblasts of control subjects): 64.1 ± 17.5 α-Tubulin corrected arbitrary units
- GCLC protein expression (GCLC; t-BHQ treated (50 μM, 18 h), fibroblasts of schizophrenia patients): 45.4 ± 15.8 α-Tubulin corrected arbitrary units
- GCLC protein expression (GCLC; [2]): 58.9±19.0
- GCLC protein expression (GCLC; [3]): 45.6±13.3
